Measured values from patent US20120270237A9, “METHODS FOR THE IDENTIFICATION OF KINASE INTERACTING MOLECULES AND FOR THE PURIFICATION OF KINASE PROTEINS” (Cellzone AG, priority 2009, published 2012).

Columns and labels:
Test in all cases: Kinobeads competition binding, HL60 cell lysate
Parameters in all cases: endogenous in cells
Details in all cases: 10 μM free compound
[1] = target: CDK9 (Homo sapiens, UniProt P50750)
Experimental: (§1) To one aliquot of cell lysate 10 μM of the free compound (FIG. 3, CZC31326) was added and allowed to bind to proteins in the lysate. Then the affinity matrix with the immobilized compound (Example 1) was added to capture proteins that were not interacting with the previously added free compound. Beads were separated from the lysate and bead bound proteins were eluted in SDS sample buffer and subsequently separated by SDS-Polyacrylamide gel electrophoresis (FIG. 4). Suitable gel bands were cut out and subjected to in-gel proteolytic digestion with trypsin. The second lysate aliquot was processed identically, however no free compound was added (DMSO solvent control). Peptides originating from samples 1 and 2 were labeled with iTRAQ reagents (iTRAQ 114 and iTRAQ 117) and the combined samples were analyzed with a nano-flow liquid chromatography system coupled online to a tandem mass spectrometer (LC-MS/MS) experiment followed by iTRAQ reporter ion quantification in the MS/MS spectra (Ross et al., 2004. Mol. Cell. Proteomics 3(12):1154-1169). Further experimental protocols can be found in WO2006/134056 and a previous publication (Bantscheff et al., 2007. Nature Biotechnology 25, 1035-1044). Sepharose-beads with the immobilized compound (100 μl beads per pull-down experiment) were equilibrated in lysis buffer and incubated with a cell lysate sample containing 50 mg of protein on an end-over-end shaker (Roto Shake Genie, Scientific Industries Inc.) for 2 hours at 4° C. Beads were collected, transferred to Mobicol-columns (MoBiTech 10055) and washed with 10 ml lysis buffer containing 0.4% NP40 detergent, followed by 5 ml lysis buffer containing 0.2% detergent. To elute bound proteins, 60 μl 2×SDS sample buffer was added to the column. The column was incubated for 30 minutes at 50° C. and the eluate was transferred to a siliconized microfuge tube by centrifugation. Proteins were then alkylated with 108 mM iodoacetamid. Proteins were then separated by SDS-Polyacrylamide electrophoresis (SDS-PAGE). The peptide extracts of samples treated with 10 μM of free compound (CZC31326) and the solvent control (0.5% DMSO) were treated with different variants of the isobaric tagging reagent (iTRAQ Reagents Multiplex Kit, part number 4352135, Applied Biosystems, Foster City, Calif., USA). The iTRAQ reagents are a set of multiplexed, amine-specific, stable isotope reagents that can label peptides on amino groups in up to four different biological samples enabling simultaneous identification and quantitation of peptides. The iTRAQ reagents were used according to instructions provided by the manufacturer. The samples were resuspended in 10 μl 50 mM TEAB solution, pH 8.5 and 10 μl ethanol were added. The iTRAQ reagent was dissolved in 120 μl ethanol and 10 μl of reagent solution were added to the sample. The labeling reaction was performed at room temperature for one hour on a horizontal shaker and stopped by adding 5 μl of 100 mM TEAB and 100 mM glycine in water. The two labeled sampled were then combined, dried in a vacuum centrifuge and resuspended in 10 μl of 0.1% formic acid in water. Relative protein quantitation was performed using peak areas of iTRAQ reporter ion signals essentially as described in an earlier publication (Bantscheff et al., 2007. Nature Biotechnology 25, 1035-1044).

[2] = target: JNK2 (Homo sapiens, UniProt P45984)
Sequence of JNK2 (P45984 whole entry): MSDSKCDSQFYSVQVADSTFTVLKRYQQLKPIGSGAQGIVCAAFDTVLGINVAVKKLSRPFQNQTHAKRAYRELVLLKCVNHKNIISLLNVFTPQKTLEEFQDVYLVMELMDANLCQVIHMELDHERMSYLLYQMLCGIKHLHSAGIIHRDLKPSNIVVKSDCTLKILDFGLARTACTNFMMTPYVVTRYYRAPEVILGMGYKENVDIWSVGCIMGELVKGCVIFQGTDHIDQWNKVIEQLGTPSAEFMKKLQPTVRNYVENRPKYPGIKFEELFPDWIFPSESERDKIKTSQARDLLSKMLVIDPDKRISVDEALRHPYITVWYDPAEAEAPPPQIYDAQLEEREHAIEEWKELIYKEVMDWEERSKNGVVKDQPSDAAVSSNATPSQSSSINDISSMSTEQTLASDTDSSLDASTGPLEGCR
Experimental: as §1

[3] = target: T1, ULK3 (Homo sapiens, UniProt Q6PHR2)
T1 sequence (Q6PHR2 1-472): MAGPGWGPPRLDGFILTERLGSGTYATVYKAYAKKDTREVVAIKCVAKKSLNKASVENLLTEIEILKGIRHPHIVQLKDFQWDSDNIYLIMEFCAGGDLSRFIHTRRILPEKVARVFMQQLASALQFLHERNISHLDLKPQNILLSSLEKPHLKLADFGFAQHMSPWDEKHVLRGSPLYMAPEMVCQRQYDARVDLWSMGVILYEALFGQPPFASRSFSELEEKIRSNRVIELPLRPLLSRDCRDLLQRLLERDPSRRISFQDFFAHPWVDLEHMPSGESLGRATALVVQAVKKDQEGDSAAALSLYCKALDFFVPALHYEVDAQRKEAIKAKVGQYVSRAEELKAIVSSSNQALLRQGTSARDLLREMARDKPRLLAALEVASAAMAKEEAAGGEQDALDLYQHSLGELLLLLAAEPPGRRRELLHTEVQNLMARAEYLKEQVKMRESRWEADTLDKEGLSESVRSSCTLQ
Experimental: as §1

[4] = target: SLK (Homo sapiens, UniProt Q9H2G2)
Sequence of SLK (Q9H2G2 whole entry): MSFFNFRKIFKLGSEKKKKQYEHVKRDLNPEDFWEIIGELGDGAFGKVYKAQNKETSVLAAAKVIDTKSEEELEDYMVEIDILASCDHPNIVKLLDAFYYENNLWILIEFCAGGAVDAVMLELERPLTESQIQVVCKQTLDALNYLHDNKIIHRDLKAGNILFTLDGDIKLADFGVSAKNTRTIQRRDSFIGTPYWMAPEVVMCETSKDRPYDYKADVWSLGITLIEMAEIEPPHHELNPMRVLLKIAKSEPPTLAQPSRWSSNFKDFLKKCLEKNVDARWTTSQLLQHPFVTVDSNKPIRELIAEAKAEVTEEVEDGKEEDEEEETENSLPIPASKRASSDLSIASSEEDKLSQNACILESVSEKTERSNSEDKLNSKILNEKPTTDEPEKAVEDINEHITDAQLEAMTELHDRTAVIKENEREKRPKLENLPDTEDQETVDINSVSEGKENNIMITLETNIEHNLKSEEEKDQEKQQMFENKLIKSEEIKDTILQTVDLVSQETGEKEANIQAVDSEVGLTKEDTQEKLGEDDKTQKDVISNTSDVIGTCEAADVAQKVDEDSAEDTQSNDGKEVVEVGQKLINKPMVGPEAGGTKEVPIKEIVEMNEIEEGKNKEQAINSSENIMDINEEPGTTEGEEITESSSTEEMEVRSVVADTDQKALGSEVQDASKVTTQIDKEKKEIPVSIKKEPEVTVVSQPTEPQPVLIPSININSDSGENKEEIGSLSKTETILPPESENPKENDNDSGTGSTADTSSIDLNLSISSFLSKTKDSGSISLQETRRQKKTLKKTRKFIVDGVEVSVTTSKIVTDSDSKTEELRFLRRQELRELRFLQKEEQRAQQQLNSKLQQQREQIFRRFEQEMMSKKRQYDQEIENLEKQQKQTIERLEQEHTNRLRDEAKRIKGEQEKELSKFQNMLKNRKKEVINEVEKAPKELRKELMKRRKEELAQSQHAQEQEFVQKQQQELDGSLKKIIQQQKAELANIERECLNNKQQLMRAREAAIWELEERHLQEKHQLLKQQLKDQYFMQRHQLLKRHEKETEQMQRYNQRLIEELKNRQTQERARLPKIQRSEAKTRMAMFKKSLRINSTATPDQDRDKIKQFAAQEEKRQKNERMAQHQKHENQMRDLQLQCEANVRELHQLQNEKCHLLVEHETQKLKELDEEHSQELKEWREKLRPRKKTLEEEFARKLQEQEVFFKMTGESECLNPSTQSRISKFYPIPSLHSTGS
Experimental: as §1

[5] = target: T2, NEK9 (Homo sapiens, UniProt Q8TD19)
T2 sequence (Q8TD19 1-979): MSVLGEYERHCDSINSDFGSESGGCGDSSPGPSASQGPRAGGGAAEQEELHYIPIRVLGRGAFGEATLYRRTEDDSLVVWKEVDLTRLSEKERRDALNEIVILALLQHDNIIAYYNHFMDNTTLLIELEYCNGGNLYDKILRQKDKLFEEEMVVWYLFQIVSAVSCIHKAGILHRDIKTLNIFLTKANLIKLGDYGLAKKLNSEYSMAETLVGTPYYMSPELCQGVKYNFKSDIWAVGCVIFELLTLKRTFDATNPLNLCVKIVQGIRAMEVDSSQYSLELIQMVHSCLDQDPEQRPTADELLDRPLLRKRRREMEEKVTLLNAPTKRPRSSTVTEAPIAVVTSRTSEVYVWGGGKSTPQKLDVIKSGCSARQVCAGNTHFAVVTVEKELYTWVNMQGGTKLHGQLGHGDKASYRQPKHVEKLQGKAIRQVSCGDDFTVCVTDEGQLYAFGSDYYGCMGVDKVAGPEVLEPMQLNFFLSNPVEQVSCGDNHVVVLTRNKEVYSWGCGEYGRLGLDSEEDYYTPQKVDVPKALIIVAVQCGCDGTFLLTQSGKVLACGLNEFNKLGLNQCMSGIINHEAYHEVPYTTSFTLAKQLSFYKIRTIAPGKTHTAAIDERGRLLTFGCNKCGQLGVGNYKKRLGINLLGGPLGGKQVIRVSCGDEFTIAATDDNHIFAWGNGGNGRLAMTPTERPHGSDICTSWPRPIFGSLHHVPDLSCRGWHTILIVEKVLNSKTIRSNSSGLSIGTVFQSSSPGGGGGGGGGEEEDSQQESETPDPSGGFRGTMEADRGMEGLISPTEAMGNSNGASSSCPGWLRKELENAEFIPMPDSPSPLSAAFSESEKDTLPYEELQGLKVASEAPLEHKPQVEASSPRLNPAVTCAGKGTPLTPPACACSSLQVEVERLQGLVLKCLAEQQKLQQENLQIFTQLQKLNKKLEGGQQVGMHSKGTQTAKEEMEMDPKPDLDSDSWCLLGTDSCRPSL
Experimental: as §1

Sequence of CDK9 (P50750 whole entry): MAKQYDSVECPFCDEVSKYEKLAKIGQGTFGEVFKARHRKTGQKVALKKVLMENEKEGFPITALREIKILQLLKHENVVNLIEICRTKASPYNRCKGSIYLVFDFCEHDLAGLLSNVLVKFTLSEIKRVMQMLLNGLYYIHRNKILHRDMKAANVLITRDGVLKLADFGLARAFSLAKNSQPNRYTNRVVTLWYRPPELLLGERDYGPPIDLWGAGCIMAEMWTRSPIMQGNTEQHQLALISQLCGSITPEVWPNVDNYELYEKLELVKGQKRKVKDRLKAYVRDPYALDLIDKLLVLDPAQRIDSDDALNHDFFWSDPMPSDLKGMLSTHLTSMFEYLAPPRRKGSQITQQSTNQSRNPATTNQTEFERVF

inhibition at 10 µM [1]: 98.2%
Competition % [2]: 87.8%
Competition % [3]: 97.7%
inhibition at 10 µM [4]: 97.5%
SMILES: CS(=O)(=O)Nc1ccccc1Nc1nc(Nc2cccc(OCCN)c2)ncc1Cl [CZC31326, N-(2-(2-(3-(2-aminoethoxy)phenylamino)-5-chloropyrimidin-4-ylamino)phenyl)methanesulfonamide]
inhibition at 10 µM [5]: 93%
